Broadly, the IC50 is the midpoint of a concentration-inhibition curve.

Assay [1] deals with T1, AXL (Homo sapiens, UniProt P30530).
T1 sequence (P30530 26-894): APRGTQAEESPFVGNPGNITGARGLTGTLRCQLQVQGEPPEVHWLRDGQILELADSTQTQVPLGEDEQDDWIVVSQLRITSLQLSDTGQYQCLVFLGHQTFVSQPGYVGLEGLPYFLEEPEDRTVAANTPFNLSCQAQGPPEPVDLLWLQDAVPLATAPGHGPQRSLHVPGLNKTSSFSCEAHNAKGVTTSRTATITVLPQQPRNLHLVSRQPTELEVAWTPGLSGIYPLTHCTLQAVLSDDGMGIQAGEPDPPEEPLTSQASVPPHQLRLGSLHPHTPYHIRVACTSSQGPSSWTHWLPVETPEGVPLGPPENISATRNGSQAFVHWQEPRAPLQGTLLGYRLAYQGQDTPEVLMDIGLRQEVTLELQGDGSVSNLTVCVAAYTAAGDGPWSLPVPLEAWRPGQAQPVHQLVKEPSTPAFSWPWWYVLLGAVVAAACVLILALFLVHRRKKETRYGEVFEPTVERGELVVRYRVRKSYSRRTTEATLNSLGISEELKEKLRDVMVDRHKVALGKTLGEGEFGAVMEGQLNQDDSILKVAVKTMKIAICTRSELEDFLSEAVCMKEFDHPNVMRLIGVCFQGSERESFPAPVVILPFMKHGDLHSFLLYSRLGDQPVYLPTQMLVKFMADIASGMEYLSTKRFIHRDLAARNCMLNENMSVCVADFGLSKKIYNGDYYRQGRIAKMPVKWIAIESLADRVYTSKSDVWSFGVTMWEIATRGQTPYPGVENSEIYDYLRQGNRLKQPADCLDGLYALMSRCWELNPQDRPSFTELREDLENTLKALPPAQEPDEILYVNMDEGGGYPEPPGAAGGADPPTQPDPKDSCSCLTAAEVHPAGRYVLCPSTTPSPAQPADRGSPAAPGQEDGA
Briefly: TR-FRET kinase activity assay, AXL. The conditions noted are these: ATP at Km, 60 minutes. Format: biochemical. Summed up:
(§1)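 Recombinant human kinases, fluorescent peptide substrate, ATP at Km; 1 h RT, pH 7.5. EDTA-quenched, Eu antibody added, TR-FRET read; IC50 determined.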
(In general: TR-FRET usually uses a lanthanide donor and a delayed reading to cut background.)

Assay [2] has as its target T2, MERTK (Homo sapiens, UniProt Q12866).
T2 sequence (Q12866 21-999): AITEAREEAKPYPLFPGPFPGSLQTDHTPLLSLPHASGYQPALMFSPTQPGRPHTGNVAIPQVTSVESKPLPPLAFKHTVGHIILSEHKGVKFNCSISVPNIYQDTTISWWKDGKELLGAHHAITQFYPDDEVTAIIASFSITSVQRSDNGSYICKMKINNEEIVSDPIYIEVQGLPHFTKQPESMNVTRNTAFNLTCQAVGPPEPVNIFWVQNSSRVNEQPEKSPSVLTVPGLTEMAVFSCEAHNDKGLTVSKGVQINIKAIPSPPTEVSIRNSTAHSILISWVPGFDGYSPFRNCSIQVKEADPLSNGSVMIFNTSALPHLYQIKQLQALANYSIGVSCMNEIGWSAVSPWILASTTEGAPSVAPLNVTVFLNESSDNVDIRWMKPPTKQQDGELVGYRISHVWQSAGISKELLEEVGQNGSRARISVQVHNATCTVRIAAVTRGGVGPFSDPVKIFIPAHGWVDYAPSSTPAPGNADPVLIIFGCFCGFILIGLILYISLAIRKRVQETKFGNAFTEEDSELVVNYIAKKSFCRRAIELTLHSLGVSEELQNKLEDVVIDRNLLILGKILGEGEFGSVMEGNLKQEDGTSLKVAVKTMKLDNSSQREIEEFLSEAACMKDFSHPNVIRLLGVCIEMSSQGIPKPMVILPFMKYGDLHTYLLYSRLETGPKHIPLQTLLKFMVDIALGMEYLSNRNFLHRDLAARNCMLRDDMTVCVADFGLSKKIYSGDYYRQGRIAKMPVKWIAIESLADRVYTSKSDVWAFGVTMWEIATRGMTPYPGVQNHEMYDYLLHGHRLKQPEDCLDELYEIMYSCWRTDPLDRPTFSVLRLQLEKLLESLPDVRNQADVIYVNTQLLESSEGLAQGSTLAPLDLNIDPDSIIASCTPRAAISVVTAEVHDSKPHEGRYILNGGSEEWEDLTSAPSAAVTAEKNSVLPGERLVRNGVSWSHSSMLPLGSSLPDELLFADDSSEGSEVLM
In words: TR-FRET kinase activity assay, MERTK. Format: biochemical. The conditions noted are these: for IC50: TR-FRET activity assay, ATP at Km, 60 minutes, read-out: Mer IC50; for FLT3/Mer ratio (FLT3 IC50/Mer IC50): ratio of Mer to FLT3: FLT3 IC50/Mer IC50. Summed up:
as §1

Take `COC[C@H](C)Nc1ncc2c(-c3cnn(C4CN(C(=O)C5(C(F)(F)F)CC5)C4)c3)cc([C@H]3CC[C@H](O)CC3)n2n1` [Compound 294]: in assay [1], the IC50 is ≤ 0.1 µM. In assay [2], the IC50 was ≤ 0.1 µM and the “FLT3/Mer ratio (FLT3 IC50/Mer IC50)” value was “+++ (“+++” represents a ratio of >100)”.
`CNC(=NC#N)N[C@H]1CC[C@H](c2cc(-c3ccc(CN4CCOCC4)cc3)c3cnc(N[C@@H](C)COC)nn32)CC1` [Compound 307]: the IC50 in assay [1] was ≤ 0.1 µM. In assay [2], the IC50 is ≤ 0.1 µM and the “FLT3/Mer ratio (FLT3 IC50/Mer IC50)” value is listed as “+++ (“+++” represents a ratio of >100)”.
With `COC[C@H](C)Nc1ncc2c(-c3ccnc(C)c3)cc(C3CCC4(CC3)NC(=O)NC4=O)n2n1` (mixture of isomers) [Compound 325, (S)-8-(2-((1-methoxypropan-2-yl)amino)-5-(2-methylpyridin-4-yl)pyrrolo[2,1-f][1,2,4]triazin-7-yl)-1,3-diazaspiro[4.5]decane-2,4-dione], the IC50 in assay [1] and in assay [2] was ≤ 0.1 µM in each case. Moreover, the “FLT3/Mer ratio (FLT3 IC50/Mer IC50)” value in assay [2] is “+++ (“+++” represents a ratio of >100)”.
As for `CNC(=O)C(C)(C)n1cc(-c2cc([C@H]3CC[C@H](O)CC3)n3nc(N[C@@H](C)COC)ncc23)cn1` [Compound 295], the IC50 in assay [1] is ≤ 0.1 µM. In addition, in assay [2], the half-inhibitory concentration (IC50) is ≤ 0.1 µM and the “FLT3/Mer ratio (FLT3 IC50/Mer IC50)” value is reported as “+++ (“+++” represents a ratio of >100)”.
For `COC[C@H](C)Nc1ncc2c(-c3cnn(C[C@H]4CCC(=O)N4)c3)cc([C@H]3CC[C@H](O)CC3)n2n1` [Compound 324], the IC50 in assay [1] was ≤ 0.1 µM. For the same compound, in assay [2], the IC50 is ≤ 0.1 µM and the “FLT3/Mer ratio (FLT3 IC50/Mer IC50)” value is recorded as “+++ (“+++” represents a ratio of >100)”.
With `CCCCC[C@H](C)Nc1ncc2c(N3CCC(N(C)C)CC3)cc(C3CCC(O)CC3)n2n1.Cl` (stereo partly drawn) [Compound 115, 4-[5-[4-(dimethylamino)-1-piperidyl]-2-[[(1S)-1-methylhexyl]amino]pyrrolo[2,1-f][1,2,4]triazin-7-yl]cyclohexanol hydrochloride], the IC50 in assay [1] fell in the range of 0.1 to 1 µM. Besides, in assay [2], the IC50 is ≤ 0.1 µM; the “FLT3/Mer ratio (FLT3 IC50/Mer IC50)” value was “++ (“++” represents a ratio of between 10 and 100)”.
Consider `COC[C@H](C)Nc1ncc2c(-c3cnn(C(C)(C)C(=O)N4CCS(=O)(=O)CC4)c3)cc([C@H]3CC[C@H](O)CC3)n2n1` [Compound 331, 1-(1,1-dioxidothiomorpholino)-2-(4-(7-((trans)-4-hydroxycyclohexyl)-2-(((S)-1-methoxypropan-2-yl)amino)pyrrolo[2,1-f][1,2,4]triazin-5-yl)-1H-pyrazol-1-yl)-2-methylpropan-1-one], for which the IC50 in assay [1] and in assay [2] was ≤ 0.1 µM each time. The “FLT3/Mer ratio (FLT3 IC50/Mer IC50)” value in assay [2] was “+++ (“+++” represents a ratio of >100)”.
Consider `COC[C@H](C)Nc1ncc2c(-c3ccnc(OC4CCN(C)CC4)c3)cc([C@H]3CC[C@H](O)CC3)n2n1` [Compound 342], for which the IC50 in assay [1] is ≤ 0.1 µM. Besides, in assay [2], the IC50 is ≤ 0.1 µM and the “FLT3/Mer ratio (FLT3 IC50/Mer IC50)” value is “+++ (“+++” represents a ratio of >100)”.
Take `COC[C@H](C)Nc1ncc2c(-c3cnn(C4CC(S(C)(=O)=O)C4)c3)cc([C@H]3CC[C@H](O)CC3)n2n1` (stereo partly drawn) [Compound 287]: the IC50 in assay [1] and in assay [2] was ≤ 0.1 µM throughout. In assay [2], the “FLT3/Mer ratio (FLT3 IC50/Mer IC50)” value was “+++ (“+++” represents a ratio of >100)”.
In turn, `CNC(=O)c1cc(-c2cc([C@H]3CC[C@H](O)CC3)n3nc(N[C@@H](C)COC)ncc23)cc(C)n1` [Compound 335] had a concentration for half-maximal inhibition (IC50) in assay [1] of 0.1 to 1 µM. Further, in assay [2], the IC50 is ≤ 0.1 µM and the “FLT3/Mer ratio (FLT3 IC50/Mer IC50)” value was “+++ (“+++” represents a ratio of >100)”.
On the same counts, the results for `CNC(=O)c1cncc(-c2cc([C@H]3CC[C@H](O)CC3)n3nc(N[C@@H](C)CC(F)(F)F)ncc23)c1` [Compound 304] are ≤ 0.1 µM, ≤ 0.1 µM and “+++ (“+++” represents a ratio of >100)”.
On to `COC[C@H](C)Nc1ncc2c(-c3cc(C)nc(C)c3)cc([C@H]3CC[C@H](O)CC3)n2n1` [Compound 308], for which the concentration for half-maximal inhibition (IC50) in assay [1] is 0.1 to 1 µM; in assay [2], ≤ 0.1 µM. Further, the “FLT3/Mer ratio (FLT3 IC50/Mer IC50)” value in assay [2] is “+++ (“+++” represents a ratio of >100)”.
For `COC[C@H](C)Nc1ncc2c(-c3cnn(CC4CNC(=O)C4)c3)cc([C@H]3CC[C@H](O)CC3)n2n1` (stereo partly drawn) [Compound 303] the same measures were ≤ 0.1 µM, ≤ 0.1 µM and “+++ (“+++” represents a ratio of >100)”.
Turning to `COC[C@H](C)Nc1ncc2c(-c3ccnc(N4CCNC(=O)C4)c3)cc([C@H]3CC[C@H](O)CC3)n2n1` [Compound 340], the half-maximal inhibitory concentration (IC50) in assay [1] and in assay [2] was ≤ 0.1 µM throughout. In assay [2], the “FLT3/Mer ratio (FLT3 IC50/Mer IC50)” value is given as “+++ (“+++” represents a ratio of >100)”.
Turning to `COC[C@H](C)Nc1ncc2c(-c3ccnc(OC(C)C)c3)cc([C@H]3CC[C@H](O)CC3)n2n1` [Compound 343], the concentration for half-maximal inhibition (IC50) in assay [1] and in assay [2] was ≤ 0.1 µM throughout. Also, in assay [2], the “FLT3/Mer ratio (FLT3 IC50/Mer IC50)” value was “+++ (“+++” represents a ratio of >100)”.
On to `COC[C@H](C)Nc1ncc2c(-c3ccnc(N4CCN(C(C)=O)CC4)c3)cc([C@H]3CC[C@H](O)CC3)n2n1` [Compound 344], for which the IC50 in assay [1] and in assay [2] was ≤ 0.1 µM in each case. Further, in assay [2], the “FLT3/Mer ratio (FLT3 IC50/Mer IC50)” value was “+++ (“+++” represents a ratio of >100)”.
Take `COC[C@H](C)Nc1ncc2c(-c3ccnc(N4CCN(S(C)(=O)=O)CC4)c3)cc([C@H]3CC[C@H](O)CC3)n2n1` [Compound 338]: the IC50 in assay [1] is ≤ 0.1 µM. Further, in assay [2], the IC50 was ≤ 0.1 µM and the “FLT3/Mer ratio (FLT3 IC50/Mer IC50)” value is listed as “+++ (“+++” represents a ratio of >100)”.
On to `COC[C@H](C)Nc1ncc2c(-c3cnn(C4CCS(=O)(=O)CC4)c3)cc([C@H]3CC[C@H](O)CC3)n2n1` [Compound 323], for which the 50% inhibitory concentration (IC50) in assay [1] is ≤ 0.1 µM. Further, in assay [2], the IC50 was ≤ 0.1 µM and the “FLT3/Mer ratio (FLT3 IC50/Mer IC50)” value is “+++ (“+++” represents a ratio of >100)”.
Consider `CNS(=O)(=O)c1ccc(-c2cc([C@H]3CC[C@H](O)CC3)n3nc(N[C@@H](C)COC)ncc23)cn1` [Compound 336], for which the IC50 in assay [1] and in assay [2] was ≤ 0.1 µM each time. The “FLT3/Mer ratio (FLT3 IC50/Mer IC50)” value in assay [2] is given as “+++ (“+++” represents a ratio of >100)”.
As to `Cc1nnc(Cn2cc(-c3cc([C@H]4CC[C@H](O)CC4)n4nc(N[C@@H](C)COC(F)F)ncc34)cn2)o1` [Compound 312], in assay [1], the IC50 was ≤ 0.1 µM. Besides, in assay [2], the IC50 was ≤ 0.1 µM and the “FLT3/Mer ratio (FLT3 IC50/Mer IC50)” value is reported as “+++ (“+++” represents a ratio of >100)”.
For `COC[C@H](C)Nc1ncc2c(-c3cnn(C4CN(CC(F)(F)F)C4)c3)cc([C@H]3CC[C@H](O)CC3)n2n1` [Compound 302], the half-maximal inhibitory concentration (IC50) in assay [1] is ≤ 0.1 µM. In assay [2], the half-maximal inhibitory concentration (IC50) was ≤ 0.1 µM and the “FLT3/Mer ratio (FLT3 IC50/Mer IC50)” value was “+++ (“+++” represents a ratio of >100)”.

Values taken from patent US11040981B2, “Pyrrolotriazine compounds and methods of inhibiting TAM kinases” (Syros Pharmaceuticals, Inc., priority 2017, dated 2021).
